Earlier results as cited in patent publication US5925665A, “Imidazoline compounds” (Adir Et Compagnie, priority 1996, dated 1999).

Test system: mice
Conditions: general statement on reference products

| SMILES | duration of immobility, known antidepressants |
| --- | --- |
| CNCCCN1c2ccccc2CCc2ccccc21 [desipramine] | decrease this duration of immobility |
| CN(C)CCCN1c2ccccc2CCc2ccccc21 [imipramine] | decrease this duration of immobility |
